These results are taken from patent publication US11566022B2, “3-(5-methoxy-1-oxoisoindolin-2-yl)piperidine-2,6-dione derivatives and uses thereof” (NOVARTIS AG, priority 2019, dated 2023).

Like-named read-outs stand apart in the source and are kept apart here.

The target of one test is HiBit-WIZ fusion protein (Homo sapiens, UniProt O95785+Q96SW2). As to the kind of experiment: Quantification of WIZ protein levels in HiBit tag fusion protein assay (WIZ HiBit assay in 293T cells). Format: cell-based. As to conditions: for remaining activity at up to 25 µM: read-out: WIZ Amax; for DC50: read-out: WIZ AC50. Set-up: Dmax: dose or concentration left out as unconfirmed.

The conditions of test [1]: SCD, current standard of care; cited from earlier work.
Setting [2] is: HEK-293T, 100 minus Amax, 293T cells, read-out: % degradation of WIZ (100-Amax).
Setting [3] is: HEK-293T, DMSO-normalized, curve-fitted percentage of WIZ-HiBit remaining at 25 uM, 293T cells.
Setting [4] is: WIZ HiBit assay in 293T cells, 10-point, 5-fold dose response, highest concentration 25 μM, about 18 hours.

HiBit-WIZ fusion protein, sequence (O95785 whole entry, the tested form may be a part): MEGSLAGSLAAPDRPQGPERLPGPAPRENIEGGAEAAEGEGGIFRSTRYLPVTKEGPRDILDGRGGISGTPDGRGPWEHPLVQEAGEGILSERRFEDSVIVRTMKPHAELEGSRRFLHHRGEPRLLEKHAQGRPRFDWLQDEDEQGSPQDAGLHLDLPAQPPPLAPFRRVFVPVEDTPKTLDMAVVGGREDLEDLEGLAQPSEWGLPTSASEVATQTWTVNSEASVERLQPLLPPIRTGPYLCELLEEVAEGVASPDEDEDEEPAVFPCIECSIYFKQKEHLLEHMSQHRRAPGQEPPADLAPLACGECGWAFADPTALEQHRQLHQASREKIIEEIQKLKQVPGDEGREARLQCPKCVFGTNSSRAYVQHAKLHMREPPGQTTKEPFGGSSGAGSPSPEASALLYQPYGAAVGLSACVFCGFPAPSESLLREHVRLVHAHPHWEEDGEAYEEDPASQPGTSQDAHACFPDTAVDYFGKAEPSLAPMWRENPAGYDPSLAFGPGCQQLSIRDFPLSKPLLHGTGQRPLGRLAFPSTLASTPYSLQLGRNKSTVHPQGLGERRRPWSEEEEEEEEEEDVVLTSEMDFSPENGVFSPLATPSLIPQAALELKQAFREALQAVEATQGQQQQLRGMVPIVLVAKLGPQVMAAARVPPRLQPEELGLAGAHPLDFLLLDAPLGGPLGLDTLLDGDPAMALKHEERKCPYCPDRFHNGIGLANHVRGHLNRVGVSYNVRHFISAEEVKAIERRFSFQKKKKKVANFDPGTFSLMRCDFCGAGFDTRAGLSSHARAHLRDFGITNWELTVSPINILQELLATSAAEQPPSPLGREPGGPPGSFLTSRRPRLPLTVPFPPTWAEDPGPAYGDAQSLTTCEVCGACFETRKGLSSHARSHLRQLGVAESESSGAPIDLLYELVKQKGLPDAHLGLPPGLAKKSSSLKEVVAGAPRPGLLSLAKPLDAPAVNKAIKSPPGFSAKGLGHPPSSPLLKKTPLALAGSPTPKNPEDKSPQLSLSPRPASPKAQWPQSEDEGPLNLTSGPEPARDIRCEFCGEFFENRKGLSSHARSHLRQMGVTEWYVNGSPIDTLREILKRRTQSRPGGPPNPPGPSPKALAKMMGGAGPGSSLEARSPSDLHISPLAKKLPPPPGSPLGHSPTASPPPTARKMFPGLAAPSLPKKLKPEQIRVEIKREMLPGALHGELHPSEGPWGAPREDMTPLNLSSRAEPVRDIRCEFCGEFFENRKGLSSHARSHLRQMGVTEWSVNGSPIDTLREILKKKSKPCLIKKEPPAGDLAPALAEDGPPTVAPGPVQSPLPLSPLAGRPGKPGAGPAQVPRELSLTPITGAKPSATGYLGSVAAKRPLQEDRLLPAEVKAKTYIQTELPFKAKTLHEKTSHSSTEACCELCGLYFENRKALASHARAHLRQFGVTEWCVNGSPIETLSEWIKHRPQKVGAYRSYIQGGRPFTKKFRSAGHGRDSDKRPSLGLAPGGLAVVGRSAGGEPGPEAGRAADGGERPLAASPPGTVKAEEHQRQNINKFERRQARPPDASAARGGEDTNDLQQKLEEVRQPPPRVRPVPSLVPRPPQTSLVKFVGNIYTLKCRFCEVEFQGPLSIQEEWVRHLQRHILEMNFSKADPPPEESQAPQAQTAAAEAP
HiBit-WIZ fusion protein, sequence (Q96SW2 whole entry, the tested form may be a part): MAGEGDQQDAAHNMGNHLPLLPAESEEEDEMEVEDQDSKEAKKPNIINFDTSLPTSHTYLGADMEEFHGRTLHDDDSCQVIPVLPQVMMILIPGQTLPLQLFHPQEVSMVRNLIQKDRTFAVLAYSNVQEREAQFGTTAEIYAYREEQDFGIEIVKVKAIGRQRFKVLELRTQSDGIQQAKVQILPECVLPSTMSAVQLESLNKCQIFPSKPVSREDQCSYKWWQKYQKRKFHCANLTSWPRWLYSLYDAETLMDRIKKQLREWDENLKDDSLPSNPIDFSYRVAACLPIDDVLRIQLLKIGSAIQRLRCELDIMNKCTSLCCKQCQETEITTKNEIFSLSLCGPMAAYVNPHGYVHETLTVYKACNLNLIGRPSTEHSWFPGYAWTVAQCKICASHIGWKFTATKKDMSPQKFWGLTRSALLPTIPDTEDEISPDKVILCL
HiBit-WIZ fusion protein, sequence (Q16531 whole entry partner, the tested form may be a part): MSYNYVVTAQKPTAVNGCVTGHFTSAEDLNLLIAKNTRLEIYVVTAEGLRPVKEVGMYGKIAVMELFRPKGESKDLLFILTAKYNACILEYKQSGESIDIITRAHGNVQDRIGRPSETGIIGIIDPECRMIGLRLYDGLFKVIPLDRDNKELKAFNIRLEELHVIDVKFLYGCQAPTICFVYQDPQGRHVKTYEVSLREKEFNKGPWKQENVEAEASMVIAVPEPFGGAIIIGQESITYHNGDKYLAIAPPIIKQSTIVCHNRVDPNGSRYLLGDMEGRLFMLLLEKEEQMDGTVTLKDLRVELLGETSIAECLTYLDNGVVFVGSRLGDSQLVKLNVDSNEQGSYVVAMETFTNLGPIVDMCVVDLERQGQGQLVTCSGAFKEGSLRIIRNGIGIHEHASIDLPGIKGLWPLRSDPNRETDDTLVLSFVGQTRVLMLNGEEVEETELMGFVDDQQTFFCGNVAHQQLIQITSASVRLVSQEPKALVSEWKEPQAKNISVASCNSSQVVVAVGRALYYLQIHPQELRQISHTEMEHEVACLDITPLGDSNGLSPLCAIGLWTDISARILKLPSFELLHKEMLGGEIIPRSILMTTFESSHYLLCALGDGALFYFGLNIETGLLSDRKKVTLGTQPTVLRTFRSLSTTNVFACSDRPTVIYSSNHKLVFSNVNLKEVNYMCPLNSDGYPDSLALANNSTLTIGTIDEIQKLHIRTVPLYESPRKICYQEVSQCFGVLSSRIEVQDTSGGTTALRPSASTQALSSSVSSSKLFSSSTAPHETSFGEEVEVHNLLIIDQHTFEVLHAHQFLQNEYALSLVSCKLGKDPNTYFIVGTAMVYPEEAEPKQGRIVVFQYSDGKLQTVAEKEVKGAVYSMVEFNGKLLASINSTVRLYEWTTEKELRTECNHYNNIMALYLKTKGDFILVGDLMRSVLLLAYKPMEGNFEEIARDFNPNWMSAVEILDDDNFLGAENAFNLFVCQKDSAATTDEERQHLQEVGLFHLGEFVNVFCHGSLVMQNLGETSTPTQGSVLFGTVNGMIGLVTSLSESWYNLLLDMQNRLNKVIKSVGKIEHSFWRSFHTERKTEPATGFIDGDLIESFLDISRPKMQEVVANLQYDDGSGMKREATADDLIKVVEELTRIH

Turning to `O=C1CCC(N2Cc3cc(OC[C@H]4CCCCN4CC4CC4)ccc3C2=O)C(=O)N1` (stereo partly drawn) [Compound I-214, 3-(5-(((R)-1-(cyclopropylmethyl)piperidin-2-yl)methoxy)-1-oxoisoindolin-2-yl)piperidine-2,6-dione], on HiBit-WIZ fusion protein (setting [2]), the Dmax was determined as 82.8%. Moreover, the remaining activity at up to 25 µM at HiBit-WIZ fusion protein (setting [3]) was 17.1%. Besides, the DC50 on HiBit-WIZ fusion protein (setting [4]) worked out at 32 nM.
On to `COC1CCC(CN2CCCCC2C(C)Oc2ccc3c(c2)CN(C2CCC(=O)NC2=O)C3=O)CC1` (stereo not drawn) [Compound I-217, 3-(5-(1-(1-((4-methoxycyclohexyl)methyl)piperidin-2-yl)ethoxy)-1-oxoisoindolin-2-yl)piperidine-2,6-dione], for which the Dmax at HiBit-WIZ fusion protein (setting [2]) was 0.4%. The remaining activity at up to 25 µM on HiBit-WIZ fusion protein (setting [3]) was determined as 99.6%.
Regarding `CCN1[C@@H]2CC[C@@H](C2)[C@H]1COc1ccc2c(c1)CN(C1CCC(=O)NC1=O)C2=O` (stereo partly drawn) [Compound I-223, 3-(5-(((1R,3S,4S)-2-ethyl-2-azabicyclo[2.2.1]heptan-3-yl)methoxy)-1-oxoisoindolin-2-yl)piperidine-2,6-dione], the Dmax on HiBit-WIZ fusion protein (setting [2]) came out at 82.8%. The remaining activity at up to 25 µM at HiBit-WIZ fusion protein (setting [3]) is 17.1%. Besides, the DC50 on HiBit-WIZ fusion protein (setting [4]) is 72 nM.
Turning to `CC(C)N1CCN(c2ccc(CN3CCCC[C@@H]3COc3ccc4c(c3)CN(C3CCC(=O)NC3=O)C4=O)cc2)CC1` (stereo partly drawn) [Compound I-227, 3-(5-(((R)-1-(4-(4-isopropylpiperazin-1-yl)benzyl)piperidin-2-yl)methoxy)-1-oxoisoindolin-2-yl)piperidine-2,6-dione], on HiBit-WIZ fusion protein (HEK-293T, read-out: % degradation of WIZ (100-Amax), 100 minus Amax, 293T cells), the Dmax is 64.2%. Also, the remaining activity at HiBit-WIZ fusion protein (HEK-293T, read-out: WIZ Amax, DMSO-normalized, curve-fitted percentage of WIZ-HiBit remaining at 25 uM, 293T cells) came out at 35.8%. In addition, the DC50 at HiBit-WIZ fusion protein (setting [4]) is 58 nM.
With `CC(C)(C)N1CCN(c2ccc(CN3CCCC[C@@H]3COc3ccc4c(c3)CN(C3CCC(=O)NC3=O)C4=O)cc2)CC1` (stereo partly drawn) [Compound I-229, 3-(5-(((R)-1-(4-(4-(tert-butyl)piperazin-1-yl)benzyl)piperidin-2-yl)methoxy)-1-oxoisoindolin-2-yl)piperidine-2,6-dione], at HiBit-WIZ fusion protein (setting [2]), the Dmax stood at 73.5%. For the same molecule, on HiBit-WIZ fusion protein (setting [3]), the remaining activity at up to 25 µM turned out to be 26.6%. The DC50 at HiBit-WIZ fusion protein (setting [4]) turned out to be 2 nM.
The corresponding values for `O=C1CCC(N2Cc3cc(OC[C@H]4CCCCN4Cc4ccc(N5CCN(C6CC6)CC5)cc4)ccc3C2=O)C(=O)N1` (stereo partly drawn) [Compound I-233, 3-(5-(((R)-1-(4-(4-cyclopropylpiperazin-1-yl)benzyl)piperidin-2-yl)methoxy)-1-oxoisoindolin-2-yl)piperidine-2,6-dione] are 81.1%, 18.9% and 0.73 nM.
As to `O=C1CCC(N2Cc3cc(OCC4CC(F)(F)CCN4)ccc3C2=O)C(=O)N1` (stereo not drawn) [Compound I-251, 3-(5-((4,4-difluoropiperidin-2-yl)methoxy)-1-oxoisoindolin-2-yl)piperidine-2,6-dione], the Dmax at HiBit-WIZ fusion protein (setting [2]) came to 78.3%. Further, the remaining activity at up to 25 µM on HiBit-WIZ fusion protein (setting [3]) was determined as 21.7%. Also, at HiBit-WIZ fusion protein (setting [4]), the DC50 was determined as 500 nM.
`NC(=O)NO` [Hydroxyurea]: the response rate entry in test [1] was “less than 40%”.
The term AC50 denotes the concentration giving half of the maximal activity seen. Turning to `O=C1CCC(N2Cc3cc(OC[C@H]4CCCCN4CC4CC(O)C4)ccc3C2=O)C(=O)N1` (stereo partly drawn) [I-141a, I-141b, 3-(5-(((R)-1-(((1r,3R)-3-hydroxycyclobutyl)methyl)piperidin-2-yl)methoxy)-1-oxoisoindolin-2-yl)piperidine-2,6-dione and 3-(5-(((R)-1-(((1s,3S)-3-hydroxycyclobutyl)methyl)piperidin-2-yl)methoxy)-1-oxoisoindolin-2-yl)piperidine-2,6-dione], at HiBit-WIZ fusion protein (100 minus Amax, at 25 uM, 293T cells), the “% degradation of WIZ (100-Amax)” value was 72.36%. In addition, on HiBit-WIZ fusion protein (DMSO-normalized, curve-fitted percentage of WIZ-HiBit remaining at 25 uM, 293T cells), the “WIZ Amax” value is listed as 27.64%. Half-maximal activity at HiBit-WIZ fusion protein (setting [4]) (AC50) was put at 2460 nM.
